Assay results taken from ChEMBL document CHEMBL5126652, “Boron-Containing Pyrazole Compounds as JAK Inhibitors for Treating Inflammation, Autoimmune Diseases, and Cancer” (ACS Med Chem Lett, 2022).

Each compound was assayed against Tyrosine-protein kinase JAK1 (Homo sapiens, UniProt P23458) (assay: Inhibition of JAK1 (unknown origin) preincubated for 20 mins followed by 33P-ATP addition and measured after 2 hrs by filter binding assay).
Sequence of Tyrosine-protein kinase JAK1 (P23458 whole entry): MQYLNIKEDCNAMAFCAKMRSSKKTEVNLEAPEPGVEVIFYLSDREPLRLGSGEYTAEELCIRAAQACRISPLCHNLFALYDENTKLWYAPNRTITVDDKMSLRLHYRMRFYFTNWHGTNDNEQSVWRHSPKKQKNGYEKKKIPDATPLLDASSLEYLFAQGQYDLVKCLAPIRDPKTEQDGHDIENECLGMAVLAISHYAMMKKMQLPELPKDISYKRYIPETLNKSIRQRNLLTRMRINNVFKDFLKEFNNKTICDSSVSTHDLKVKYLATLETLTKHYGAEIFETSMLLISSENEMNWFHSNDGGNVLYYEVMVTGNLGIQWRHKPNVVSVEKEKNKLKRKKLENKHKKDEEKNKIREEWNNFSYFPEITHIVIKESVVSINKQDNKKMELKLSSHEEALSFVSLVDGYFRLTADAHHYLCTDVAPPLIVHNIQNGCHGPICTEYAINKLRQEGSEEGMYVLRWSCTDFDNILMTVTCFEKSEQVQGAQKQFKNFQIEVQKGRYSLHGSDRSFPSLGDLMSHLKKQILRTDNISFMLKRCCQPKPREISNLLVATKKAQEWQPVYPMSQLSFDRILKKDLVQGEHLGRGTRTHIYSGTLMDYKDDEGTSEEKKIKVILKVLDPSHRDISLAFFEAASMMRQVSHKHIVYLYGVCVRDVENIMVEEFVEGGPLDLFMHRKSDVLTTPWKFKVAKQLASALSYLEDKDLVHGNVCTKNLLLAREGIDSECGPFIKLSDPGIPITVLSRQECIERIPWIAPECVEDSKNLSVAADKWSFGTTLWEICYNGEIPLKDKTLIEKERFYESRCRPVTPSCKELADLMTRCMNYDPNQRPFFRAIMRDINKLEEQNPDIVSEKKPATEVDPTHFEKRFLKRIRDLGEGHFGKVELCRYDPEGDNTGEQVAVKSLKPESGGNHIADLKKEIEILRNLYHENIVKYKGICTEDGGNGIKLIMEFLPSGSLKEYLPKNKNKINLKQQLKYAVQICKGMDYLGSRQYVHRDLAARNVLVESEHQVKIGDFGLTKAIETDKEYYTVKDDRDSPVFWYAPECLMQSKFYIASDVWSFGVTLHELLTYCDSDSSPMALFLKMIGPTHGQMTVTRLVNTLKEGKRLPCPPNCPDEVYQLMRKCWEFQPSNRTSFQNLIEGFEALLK

IC50, < 10 nM:
N#CC1CCOCC1n1cc(C(N)=O)c(Nc2cc(Cl)c3c(c2)COB3O)n1 (stereo unspecified), N#CC1CCCC1n1cc(C(N)=O)c(Nc2ccc3c(c2)COB3O)n1 (stereo unspecified), N#CC1CCOCC1n1cc(C(N)=O)c(Nc2cc(F)c3c(c2)COB3O)n1 (stereo unspecified), N#CC1CCOCC1n1cc(C(N)=O)c(Nc2ccc3c(c2)C(Cl)=CB(O)O3)n1 (stereo unspecified), N#CC1CCCC1n1cc(C(N)=O)c(Nc2ccc3c(c2)C=CB(O)O3)n1 (stereo unspecified), N#CC1CCOCC1n1cc(C(N)=O)c(Nc2ccc3c(c2)C2CC2B(O)O3)n1 (stereo unspecified)
